Assay results as given in patent US12599642B2, “Compositions derived from Salvia hispanica seeds” (Signum Biosciences, priority 2020, dated 2026).
Marks after values point to notes of the source that are not given here.

Columns and labels:
PME-1 = target: T1, PME-1 (Homo sapiens, UniProt Q9Y570); test: PP2A demethylation by PME-1, radioactive filter binding assay; type: biochemical
T1 construct: made in house
T1 sequence (Q9Y570 1-386): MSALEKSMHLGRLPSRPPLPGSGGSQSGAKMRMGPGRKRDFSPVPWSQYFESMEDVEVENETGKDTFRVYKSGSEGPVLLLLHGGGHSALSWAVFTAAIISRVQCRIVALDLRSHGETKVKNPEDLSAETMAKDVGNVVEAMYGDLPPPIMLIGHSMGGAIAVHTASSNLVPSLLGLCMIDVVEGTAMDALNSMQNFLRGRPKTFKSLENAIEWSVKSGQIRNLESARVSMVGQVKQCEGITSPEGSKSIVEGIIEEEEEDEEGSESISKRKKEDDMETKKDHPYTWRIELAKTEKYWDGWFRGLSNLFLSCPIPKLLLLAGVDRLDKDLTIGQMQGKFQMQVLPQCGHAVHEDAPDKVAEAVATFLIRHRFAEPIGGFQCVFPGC
Description: Compositions were created using the extraction methods as generally described in Example 1. These compositions were assayed for their ability to preserve the methylation status of PP2A AC dimer in the presence of protein phosphatase methylesterase-1 (PME-1), using a radioactive filter binding assay.
PP2A-AC dimer was prepared as previously described in Tolstykh T, Lee J, Vafai S, Stock J B. Carboxyl methylation regulates phosphoprotein phosphatase 2A by controlling the association of regulatory B subunits. EMBO J. 2000; 19(20:5682-5691. Additional purification was performed with a HiPrep™ 16/60 Sephacryl® S100 HR in a buffer composed of 50 mM MOPS pH 7.2, 1.0 mM EDTA, 1.0 mM dithiothreitol (DTT), and 0.50 μg/ml each of aprotinin, leupeptin and pepstatin. Leucine carboxyl methytransferase-1 (LCMT-1) and Protein phosphatase methylesterase-1 (PME-1) were prepared using the methods as previously described Xing Y, Li Z, Chen Y, Stock J B, Jeffrey P D, Shi Y. Structural mechanism of demethylation and inactivation of protein phosphatase 2A. Cell. 2008; 133(I):154-163.
[3H]-labeled methylated PP2A AC dirtier was prepared by incubating PP2A, LCMT1 and [3H]-SAM (PerkinElmer; Waltham, Mass.) in 50 mM MOPS-Na (pH 7.2), 5 mM MgCl2, and 1 mM DTT at room temperature for 1 hour. Demethylation of PP2A by PME-1 was measured using the radioactive filter binding assay format. 20 nM PME-1 was incubated for 15 minutes with extract or compound, then 20 nM of [3H]-labeled methylated PP2A AC dimer was added. Reactions were run at room temperature for 30 minutes and then applied to a 96-well filter plate (Millipore Co.) containing 30% TCA where proteins were precipitated and separated from the excess of [3H]-SAM by washing with 70% ethanol. [3H]-incorporation was measured using TopCount NXT scintillation counter (PerkinEimer; Waltham, MA). IC50 values were generated from dose-response curves using a four-parameter logistic curve fit using SigmaPlot software (Systat Software, San Jose, CA).

[1] = Clinical trial, skin moisturization by Corneometer; type: in vivo, human; conditions: lower leg
Description: A single-blind, single-center clinical trial was conducted with 6 healthy volunteers of either sex to evaluate the moisturization efficacy of a moisturizing cream (formulated as shown below in Table 8) containing the composition prepared using the process of Example 9, vehicle (i.e., the formulation of Table 8 minus the active ingredient-i.e., the chia seed composition), a negative control (untreated), and two positive controls (petroleum jelly and glycerin). The objective of this study was to evaluate the moisturization efficacy (as measured by Corneometer®) and to evaluate the relative degree of improvement to skin barrier functionality of two test articles as measured by Trans Epidermal Water Loss (TEWL) assessments when tested in 16 healthy subjects. See, e.g., Johan du […] et al., International Guidelines for The In Vivo Assessment Of Skin Properties In Noel-Clinical Settings: Part 2. Transepidermal Water Loss and Skin Hydration, Skin Res. Technol. 19(3), 265-278 (2013); C. W. Blichmann and J. Serup, Assessment of Skin Moisture. Measurement of Electrical Conductance: Capacitance and Transepidermal Water Loss, Acta Derm. Venereol. 68(4): 284-290 (1988). On day -3 of the study, subjects were given a bland soap product (e.g., Simple® Soap) to use on their lower legs for the three days prior to the active phase. They were instructed not to use any other treatment products on their lower legs for the next 3 days (the “Washout Phase”). These products included moisturizing foam baths, shower gels or soaps, lotions and creams, and depilatory products. As part of the pre-treatment assessment, subjects sat resting for a period of at least 30 minutes in a controlled environment at a temperature of 22° C.±2° C. and at a relative humidity of 45%±5%. Following the rest period, their lower legs were marked with a total of four 5 cm×5 cm squares. Moisturization measurements to study the humectant properties of the test articles were performed using the Corneometer® CM825 (Courage and Khazaka, Germany). This instrument relies on the dielectric constant, a physical property of water, which is relatively high and as such will affect the capacitance of a capacitor. Any change in the dielectric constant due to skin moisture variations would alter the capacitance of the precision capacitor in the instrument. These variations were detected electronically and converted into a value by the Corneometer®. A 15-minute warm-up period was allowed before using the Corneometer®. Following assessments of skin hydration by a Corneometer®, a single application of the test articles (i.e., the chia seed formulation and vehicle alone) was made to the lower leg. Further Corneometer® assessments were then performed at 2, 8, and 24-hours following test article application. […]

[2] = test system: Cutibacterium acnes (ATCC® 6919™); test: Minimum inhibitory concentration, growth of C. acnes; type: cell-based; conditions: for MIC Cutibacterium acnes (ATCC ® 6919 ™): 90% inhibition of growth, anaerobic, 72 hours, Table 6; for MIC Cutibacterium acnes (ATCC ® 6919): Table 14
Description: (§1) The inhibition of growth of Cutibacterium acnes and Staphylococcus aureus bacteria was measured according to the methods described in Nakatsuji et al., J Invest Dermatol, 2009, 129: 2480-2488; Traub and Leonhard, Chemotherapy, 1994; 40(6):374-383. In summary, the strain ATCC® 6919™ of C. acnes (American Type Culture Collection, Manassas, VA) was cultured on Reinforced Clostridium agar (BD 218081), under anaerobic conditions using Gas-Pak (B D, Sparks, MD) at 37° C. ATCC® 29213™ strain of S. aureus was cultured on tryptic soy agar (BD 211825), under aerobic conditions at 37° C. A single colony was inoculated in broth medium and cultured at 37° C. In addition to various positive controls, both the Final Product and the First Stage Product of the extraction process described in Example 1 were tested as described below. Test material was dissolved in 100% (v/v) DMSO. Doxycycline was dissolved in 100% (v/v) water. Samples of each test material and a solution of doxycycline were then each incubated with an inoculum of bacteria at a concentration of 1×10^6 CFU per mL, in broth medium in a 96-well microplate (0.1 mL per well) under aerobic conditions for 24 hours (S. aureus) or anaerobic conditions for 72 hours (C. acnes). Samples of each material were tested at final concentrations per well up to 4 mg/mL. A control well received only 5% (v/v) of DMSO or water. After 24-72 hours incubation, the bacteria cultures in the 96-well microplate were mixed well and then absorbance readings at 600 nm were taken to determine bacterial growth.

[3] = test system: Staphylococcus aureus (ATCC® 29213™); test: Minimum inhibitory concentration, growth of S. aureus; type: cell-based; conditions: for MIC Staphylococcus aureus (ATCC ® 29213 ™): 90% inhibition of growth, aerobic, 24 hours, Table 6; for MIC Staphylococcus aureus (ATCC ® 29213): Table 14
Description: as §1

[4] = test system: human pre-adipocyte cells; test: Lipolysis assay, glycerol release; type: cell-based; conditions: 100 μM, 8 hours
Excerpt: Lipolysis is the process in which triglycerides (TG) are hydrolyzed into glycerol and free fatty acids. This process releases free fatty acids (FFA) into the bloodstream where they may be either re-esterified by the adipocyte or travel to other tissues and exert other effects throughout the body. The purpose of this study was to evaluate the lipolysis via measure of the glycerol molecule released in lipolysis process. Here, we evaluated the potential capacity of the chia seed extract composition of Example 1 in cultured human pre-adipocyte cells. Cells were seeded in medium and incubated for 7 days. Neat solutions of the enriched free acid chia seed extract composition of Example 1 were prepared formulated in methanol. Cells were pre-treated for 8 hours with or without test material in media.
A Lipolysis Assay Kit (Cat. No. Lip-1) was obtained from Zen-Bio, Inc. (Research Triangle, NC) and used to determine glycerol levels (μM) based on the methodology described below. Glycerol released to the medium is phosphorylated by […] (ATP) forming glycerol-1-phosphate (G-1-P) and adenosine-5′-diphosphate (ADP) in the reaction catalyzed by glycerol kinase. G-1-P is then oxidized by glycerol phosphate oxidase to dihydroxyacetone phosphate (DAP) and hydrogen peroxide. […] The increase in absorbance at 540 nm is directly proportional to glycerol concentration of the sample. […]

Structure (SMILES) | MIC Cutibacterium acnes (ATCC ® 6919 ™) [2] | MIC Cutibacterium acnes (ATCC ® 6919) [2] | MIC Staphylococcus aureus (ATCC ® 29213 ™) [3] | MIC Staphylococcus aureus (ATCC ® 29213) [3] | other results
CC/C=C\C/C=C\C/C=C\CCCCCCCC(=O)O [ALA, cis,cis,cis-9,12,15-octacedatriencoic acid] |  |  |  |  | [ALA] necessary to obtain 50% PP2A inhibition (PME-1; [LA]=0 μg/mL): > 8 µg/mL; [ALA] necessary to obtain 50% PP2A inhibition (PME-1; [LA]=0.5 μg/mL): > 4 µg/mL
OCC(O)CO [Positive Control (glycerine), glycerine] |  |  |  |  | Mean Corneometer ® Values ([1]; 0 hours (before application)): 22.7; Mean Corneometer ® Values ([1]; 2 hours after single application): 127.1; Mean Corneometer ® Values ([1]; 8 hours after single application): 106.8; Mean Corneometer ® Values ([1]; 24 hours after single application): 82.3
CCCCC/C=C\C/C=C\CCCCCCCC(=O)O [LA, cis,cis-9,12-octadecadienoic acid] |  |  |  |  | [LA] at which 50% PP2A inhibition is achieved (PME-1; regardless of [ALA]): ≥ 1 µg/mL
CC(C)Cn1c(=O)n(C)c(=O)c2[nH]cnc21 [IBMX, 3-isobutyl-1-methylxanthine] |  |  |  |  | Glycerol Levels, Avg [4]: 8.8* (p < 0.01 μM; Glycerol Levels, Fold Improvement [4]: 6.4

Continued, in another order:

MIC Cutibacterium acnes (ATCC ® 6919 ™) [2] | MIC Cutibacterium acnes (ATCC ® 6919) [2] | MIC Staphylococcus aureus (ATCC ® 29213 ™) [3] | MIC Staphylococcus aureus (ATCC ® 29213) [3] | Structure (SMILES) | other results
500 μg\mL | 500 μg\mL | 500 μg\mL | 500 μg\mL | O=C(OOC(=O)c1ccccc1)c1ccccc1 [Benzoyl peroxide] | 
1000 μg\mL | 500 μg\mL | 2000 μg\mL | 2000 μg\mL | O=C(O)c1ccccc1O [Salicylic Acid] | 
0.6 μg\mL | 0.6 μg\mL | 0.2 μg\mL | 0.2 μg\mL | C[C@H]1c2cccc(O)c2C(=O)C2=C(O)[C@]3(O)C(=O)C(C(N)=O)=C(O)[C@@H](N(C)C)[C@@H]3[C@@H](O)[C@@H]21 [Doxycycline] | 
